For this assay, the system named is recombinant human IL-8 type β receptor (IL-8Rβ, Type II, permissive receptor). Kind of assay: Receptor binding assay, permissive model (IL-8b), [125I]IL-8 on CHO membranes. To be noted: recombinant IL-8Rβ CHO membranes; compound without an ionizable proton in the 2-position. From the text: [^125 I]IL-8 (human recombinant) was obtained from Amersham Corp., Arlington Heights, Ill., with specific activity 2000 Ci/mmol. Gro-α was obtained from NEN- New England Nuclear. All other chemicals were of analytical grade. High levels of recombinant human IL-8 type α and β receptors were individually expressed in Chinese hamster ovary cells as described previously (Holmes, et al., Science, 1991, 253, 1278). The Chinese hamster ovary membranes were homogenized according to a previously described protocol (Haour, et al., J Biol Chem., 249 pp 2195-2205 (1974)). Except that the homogenization buffer was changed to 10mM Tris-HCL, 1mM MgS04, 0.5mM EDTA (ethylene-diaminetetra-acetic acid), 1mMPMSF (α-toluenesulphonyl fluoride), 0.5 mg/L Leupeptin, pH 7.5. Membrane protein concentration was determined using Pierce Co. micro-assay kit using bovine serum albumin as a standard. All assays were performed in a 96-well micro plate format. Each reaction mixture contained ^125 I IL-8 (0.25 nM) or ^125 I Gro-α and 0.5 μg/mL of IL-8Rα or 1.0 μg/mL of IL-8Rβ membranes in 20 mM Bis-Trispropane and 0.4 mM Tris HCl buffers, pH 8.0, containing 1.2 mM MgSO4, 0.1 mM EDTA, 25 mM NaCl and 0.03% CHAPS. […] The filter was then dried and counted on the Betaplate liquid scintillation counter. […]

Take `C=CCOc1cc(C#N)ccc1NC(=NC#N)Nc1ccccc1Br` [N-(2-Allyloxy-4-cyano-phenyl)-N'-(2-bromophenyl)-N"-cyanoguanidine]: the “activity in the permissive model (IL-8b) IL-8 receptor inhibition assay, result in words” value was “inactive”.

The values are drawn from patent US6204294A, “IL-8 receptor antagonists” (SmithKline Beecham Corporation, priority 1999, dated 2001).
